Laboratory results from ChEMBL document CHEMBL5634090, “Design of phenothiazine-based cationic amphiphilic derivatives incorporating arginine residues: Potential membrane-active broad-spectrum antimicrobials combating pathogenic bacteria in vitro and in vivo” (Eur J Med Chem, 2023).
≈ marks a conversion by molar mass, not a printed value.

What was measured:
Assay type in all cases: functional
Pseudomonas aeruginosa = assay: Antibacterial activity against Pseudomonas aeruginosa ATCC 9027 infected in cyclophosphamide immunosuppressed keratitis mouse model assessed as log reduction in number of viable bacterial colonies at 0.3 % administrated tropically
Staphylococcus aureus [1] = assay: Antibacterial activity against Staphylococcus aureus ATCC 29213 by microbroth dilution assay
Staphylococcus aureus [2] = assay: Antibacterial activity against methicillin resistant Staphylococcus aureus N315 by microbroth dilution assay
Staphylococcus aureus [3] = assay: Antibacterial activity against methicillin resistant Staphylococcus aureus NCTC 10442 by microbroth dilution assay
Staphylococcus aureus [4] = assay: Antibacterial activity against Staphylococcus aureus ATCC 29213 assessed as log reduction in bacterial load at 4 times MIC measured after 2 hrs by time kill assay
Staphylococcus aureus [5] = assay: Antibacterial activity against Staphylococcus aureus ATCC 29213 assessed as log reduction in bacterial load at 8 times MIC measured after 2 hrs by time kill assay
Staphylococcus aureus [6] = assay: Antibacterial activity against Staphylococcus aureus ATCC 29213 infected in cyclophosphamide immunosuppressed keratitis mouse model assessed as log reduction in number of viable bacterial colonies at 50 mg/ml administrated tropically

SMILES | log(activity) (Pseudomonas aeruginosa) | MIC (Staphylococcus aureus [1]) | MIC (Staphylococcus aureus [2]) | MIC (Staphylococcus aureus [3]) | log(activity) (Staphylococcus aureus [4]) | log(activity) (Staphylococcus aureus [5]) | log(activity) (Staphylococcus aureus [6])
NC[C@H]1O[C@H](O[C@H]2[C@H](O)[C@@H](O[C@H]3O[C@H](CO)[C@@H](O)[C@H](N)[C@H]3O)[C@H](N)C[C@@H]2N)[C@H](N)C[C@@H]1O [TOBRAMYCIN] | 4.71 | – | – | – | – | – | –
CN[C@H](CC(C)C)C(=O)N[C@H]1C(=O)N[C@@H](CC(N)=O)C(=O)N[C@H]2C(=O)N[C@H]3C(=O)N[C@H](C(=O)N[C@H](C(=O)O)c4cc(O)cc(O)c4-c4cc3ccc4O)[C@H](O)c3ccc(c(Cl)c3)Oc3cc2cc(c3O[C@@H]2O[C@H](CO)[C@@H](O)[C@H](O)[C@H]2O[C@H]2C[C@](C)(N)[C@H](O)[C@H](C)O2)Oc2ccc(cc2Cl)[C@H]1O [VANCOMYCIN] | – | 0.78 µg/mL (≈ 0.538 µM) | 1.56 µg/mL (≈ 1.08 µM) | 1.56 µg/mL (≈ 1.08 µM) | 0.03 | 0.15 | 5.2
